Where a name gives a salt, the structure may show the parent alone.
Biological target: MCL1 protein / biotinylated BIM BH3 peptide in RKO cells (Homo sapiens (Human), UniProt Q07820)
Test: PIxEL: protein-protein interaction in permeabilized cells by ELISA (Assay 5)
Assay type: cell-based
Conditions: PIxEL IC50 (median)
Procedure: PIxEL: Protein-Protein Interaction in Permeabilized Cells by ELISA
Most MCL1 protein molecules are localized at the mitochondria outer membrane and sequester pro-apoptotic proteins through binding of their BCL2 homology domain 3 (BH3 domain). MEB buffer (150 mM mannitol, 10 mM HEPES pH 7.5, 50 mM KCl, 20 μM EDTA, 20 μM EGTA, 5 mM potassium succinate, 0.1% protease-free BSA (SIGMA) with low dose digitonin (0.002%) permeabilizes plasma membrane while leaves live mitochondria, where MCL1 maintains its native localization and conformation. Unlike biophysical assays (e.g. TR-FRET) that use truncated recombinant MCL1 protein, this assay uses full length endogenous MCL1 protein at mitochondria outer membrane. It measures the interaction between MCL1 protein and biotinylated BIM BH3 peptide. Compounds can compete with BIM BH3 peptide to bind to MCL1 protein.
On day 1, RKO colon cancer cell line cells were plated at 0.8 million cells/ml, 100 μl/well in 96-well flat bottom TC plates (Corning). MCL1 antibody (Santa Cruz sc-12756) were diluted at 200 fold (final concentration 1 μg/ml) in carbonate buffer (Thermo Fisher Scientific, pH 9.6), and 50 μl of diluted antibody was added to each well of high bind ELISA plates ([…]). Each plate was tapped to make sure liquid covering entire bottom of wells and incubate at 37° C. overnight.
On the second day, MCL1 antibody was washed from ELISA plate. 250 μl Odyssey® Blocking Buffer (PBS) (Li-Cor) was added to each well, incubated at room temperature for at least 1 hour, then washed once with 250 μl 1×PBST. Plates with RKO cells were gently washed once with 100 μl/well PBS, once with 100 μl/well MEB buffer without digitonin, then 100 μl of MEB buffer with 0.002% digitonin was gently added to each well. Compounds were added with HP Tecan compound dispenser in 3-fold dilution series, highest dose 30 μM, 10-dose per compound in quadruplicates. Biotin-BIM peptide (synthesized by 21st Century) was added with HP Tecan compound dispenser at 0.2 μM immediately after the addition of compounds. Plates were rocked for 1 hour at room temperature. Then MEB buffer was aspirated and 50 μl of CHAPS buffer (50 mM Tris-Cl, pH 7.4, 150 mM NaCl, 1% CHAPS, 1 mM EDTA, 1 mM EGTA, cOmplete protease inhibitors (Roche), PhosSTOP (Roche)) was added to each well. Plates were rocked for 1 hour at 4° C., then 45 μl cell lysate from each well were transferred to ELISA plates coated with MCL1 antibody. Plates were incubated overnight in the cold room with rocking.
On the third day, ELISA plates were washed once with 250 μl 1×PBST. Streptavidin-poly-HRP (Thermo Fisher Scientific) was diluted to 20 ng/ml in Odyssey blocking buffer plus 0.05% Triton-100, and 100 μl was added to each well of the ELISA plate. Plates were incubated at room temperature for 1 hour with rocking, then washed with 100 μl 1×PBST for 3 times. Each SuperSignal ELISA Femto Maximum Sensitivity substrate was added to a 50-ml tube and mixed, then 100 μl of mixed substrate was added to each well. Plates were shaken for 1 minute then luminescence was measured by Envision plate reader […]. Signal of each well were normalized by no-compound control and no-cell control. IC50 was calculated using Graphic Pad PRISM software.

MCL1 protein / biotinylated BIM BH3 peptide in RKO cells, sequence (Q07820 whole entry): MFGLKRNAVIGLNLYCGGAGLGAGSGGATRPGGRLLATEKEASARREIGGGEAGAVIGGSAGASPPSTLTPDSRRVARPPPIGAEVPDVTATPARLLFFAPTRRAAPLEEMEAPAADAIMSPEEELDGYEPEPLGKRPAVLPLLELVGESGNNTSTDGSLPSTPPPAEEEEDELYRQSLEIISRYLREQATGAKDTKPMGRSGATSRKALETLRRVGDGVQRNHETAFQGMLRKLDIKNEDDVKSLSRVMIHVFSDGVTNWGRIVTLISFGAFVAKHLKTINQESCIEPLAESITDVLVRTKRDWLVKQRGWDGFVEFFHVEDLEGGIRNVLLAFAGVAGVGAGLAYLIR

| SMILES | IC50 [µM] | IC50 (uM) [µM] |
| --- | --- | --- |
| Cc1c2c(nn1C)C(CCN1CCOCC1)OCCCCn1c(C(=O)O)c(CCCOc3cccc4cc(F)ccc34)c3ccc(F)c-2c31 (single isomer, unassigned; enantiomer 1) [Example 20, 4-fluoro-7-{3-[(6-fluoronaphthalen-1-yl)oxy]propyl}-2,3-dimethyl-15-[2-(morpholin-4-yl)ethyl]-2,10,11,12,13,15-hexahydropyrazolo[4′,3′:9,10][1,6]oxazacycloundecino[8,7,6-hi]indole-8-carboxylic Acid—N-ethylethanamine (Enantiomer 1)] | 0.1 | – |
| CCc1c2c(nn1C)C(CCN1CCOCC1)OCCCCn1c(C(=O)O)c(CCCOc3cccc4ccccc34)c3ccc(F)c-2c31 (single isomer, unassigned; enantiomer 1) [Example 11, 3-ethyl-4-fluoro-2-methyl-15-[2-(morpholin-4-yl)ethyl]-7-{3-[(naphthalen-1-yl)oxy]propyl}-2,10,11,12,13,15-hexahydropyrazolo[4′,3′:9,10][1,6]oxazacycloundecino[8,7,6-hi]indole-8-carboxylic Acid—N-ethylethanamine Salt (Enantiomer 1)] | – | > 30 |
| CCC1OCCCCn2c(C(=O)O)c(CCCOc3cccc4ccccc34)c3ccc(Cl)c(c32)-c2c1nn(C)c2C (single isomer, unassigned; enantiomer 1) [Example 29, (+)-4-chloro-15-ethyl-2,3-dimethyl-7-{3-[(naphthalen-1-yl)oxy]propyl}-2,10,11,12,13,15-hexahydropyrazolo[4′,3′:9,10][1,6]oxazacycloundecino[8,7,6-hi]indole-8-carboxylic Acid—N-ethylethanamine Salt (Enantiomer 1)] | 1.06 | – |
| CCc1c2c(nn1C)C(CCC(C)(C)O)OCCCCn1c(C(=O)O)c(CCCOc3cccc4cc(F)ccc34)c3ccc(Cl)c-2c31 (single isomer, unassigned; enantiomer 1) [Example 75, (+)-4-chloro-3-ethyl-7-{3-[(6-fluoronaphthalen-1-yl)oxy]propyl}-15-(3-hydroxy-3-methylbutyl)-2-methyl-2,10,11,12,13,15-hexahydropyrazolo[4′,3′:9,10][1,6]oxazacycloundecino[8,7,6-hi]indole-8-carboxylic Acid—N-ethylethanamine Salt (Enantiomer 1)] | 0.0275 | – |
| Cc1c2c(nn1C)C(C1CC1)OCCCCn1c(C(=O)O)c(CCCOc3cccc4ccccc34)c3ccc(Cl)c-2c31 (single isomer, unassigned; enantiomer 1) [Example 35, (+)-4-chloro-15-cyclopropyl-2,3-dimethyl-7-{3-[(naphthalen-1-yl)oxy]propyl}-2,10,11,12,13,15-hexahydropyrazolo[4′,3′:9,10][1,6]oxazacycloundecino[8,7,6-hi]indole-8-carboxylic Acid N-ethylethanamine Salt (Enantiomer 1)] | 1.64 | – |
| CCc1c2c(nn1C)C(C(F)(F)F)OCCCCn1c(C(=O)O)c(CCCOc3cccc4ccccc34)c3ccc(Cl)c-2c31 (single isomer, unassigned; enantiomer 1) [Example 33, (+)-4-chloro-3-ethyl-2-methyl-7-{3-[(naphthalen-1-yl)oxy]propyl}-15-(trifluoromethyl)-2,10,11,12,13,15-hexahydropyrazolo[4′,3′:9,10][1,6]oxazacycloundecino[8,7,6-hi]indole-8-carboxylic Acid—N-ethylethanamine Salt (Enantiomer 1)] | 1.51 | – |
| CCc1c2c(nn1C)C(C1CC1)OCCCCn1c(C(=O)O)c(CCCOc3cccc4cc(F)ccc34)c3ccc(Cl)c-2c31 (single isomer, unassigned; enantiomer 1) [Example 39, (+)-4-chloro-15-cyclopropyl-3-ethyl-7-{3-[(6-fluoronaphthalen-1-yl)oxy]propyl}-2-methyl-2,10,11,12,13,15-hexahydropyrazolo[4′,3′:9,10][1,6]oxazacycloundecino[8,7,6-hi]indole-8-carboxylic Acid—N-ethylethanamine Salt (Enantiomer 1)] | 0.317 | – |
| CCc1c2c(nn1C)C(CCOC)OCCCCn1c(C(=O)O)c(CCCOc3cccc4cc(F)ccc34)c3ccc(Cl)c-2c31 (single isomer, unassigned; enantiomer 1) [Example 42, (+)-4-chloro-3-ethyl-7-{3-[(6-fluoronaphthalen-1-yl)oxy]propyl}-15-(2-methoxyethyl)-2-methyl-2,10,11,12,13,15-hexahydropyrazolo[4′,3′:9,10][1,6]oxazacycloundecino[8,7,6-hi]indole-8-carboxylic Acid—N-ethylethanamine Salt (Enantiomer 1)] | 0.0451 | – |
| CCc1c2c(nn1C)C(CC(C)(C)O)OCCCCn1c(C(=O)O)c(CCCOc3cccc4cc(F)ccc34)c3ccc(Cl)c-2c31 (single isomer, unassigned; enantiomer 1) [Example 53, (+)-4-chloro-3-ethyl-7-{3-[(6-fluoronaphthalen-1-yl)oxy]propyl}-15-(2-hydroxy-2-methylpropyl)-2-methyl-2,10,11,12,13,15-hexahydropyrazolo[4′,3′:9,10][1,6]oxazacycloundecino[8,7,6-hi]indole-8-carboxylic Acid—N-ethylethanamine Salt (Enantiomer 1)] | 0.135 | – |
| CCc1c2c(nn1C)C(CCC1CCOCC1)OCCCCn1c(C(=O)O)c(CCCOc3cccc4cc(F)ccc34)c3ccc(Cl)c-2c31 (single isomer, unassigned; enantiomer 1) [Example 63, (+)-4-chloro-3-ethyl-7-{3-[(6-fluoronaphthalen-1-yl)oxy]propyl}-2-methyl-15-[2-(oxan-4-yl)ethyl]-2,10,11,12,13,15-hexahydropyrazolo[4′,3′:9,10][1,6]oxazacycloundecino[8,7,6-hi]indole-8-carboxylic Acid—N-ethylethanamine Salt (Enantiomer 1)] | 0.0142 | – |
| CCc1c2c(nn1C)C(CCN1CCOCC1)OCCCCn1c(C(=O)O)c(CCCOc3cccc4ccccc34)c3ccc(F)c-2c31 (single isomer, unassigned; enantiomer 2) [Example 12, 3-ethyl-4-fluoro-2-methyl-15-[2-(morpholin-4-yl)ethyl]-7-{3-[(naphthalen-1-yl)oxy]propyl}-2,10,11,12,13,15-hexahydropyrazolo[4′,3′:9,10][1,6]oxazacycloundecino[8,7,6-hi]indole-8-carboxylic Acid—N-ethylethanamine Salt (Enantiomer 2)] | 19.4 | – |
| Cc1c2c(nn1C)C(CCN1CCOCC1)OCCCCn1c(C(=O)O)c(CCCOc3cccc4cc(F)ccc34)c3ccc(Cl)c-2c31 (single isomer, unassigned; enantiomer 1) [Example 17, 4-chloro-7-{3-[(6-fluoronaphthalen-1-yl)oxy]propyl}-2,3-dimethyl-15-[2-(morpholin-4-yl)ethyl]-2,10,11,12,13,15-hexahydropyrazolo[4′,3′:9,10][1,6]oxazacycloundecino[8,7,6-hi]indole-8-carboxylic Acid—N-ethylethanamine (Enantiomer 1)] | 0.0357 | – |
| CCc1c2c(nn1C)C(CCN1CC(F)(F)C1)OCCCCn1c(C(=O)O)c(CCCOc3cccc4cc(F)ccc34)c3ccc(Cl)c-2c31 (single isomer, unassigned; (+)) [Example 78, (+)-4-chloro-15-[2-(3,3-difluoroazetidin-1-yl)ethyl]-3-ethyl-7-{3-[(6-fluoronaphthalen-1-yl)oxy]propyl}-2-methyl-2,10,11,12,13,15-hexahydropyrazolo[4′,3′:9,10][1,6]oxazacycloundecino[8,7,6-hi]indole-8-carboxylic Acid—N-ethylethanamine Salt] | 0.0434 | – |
